From publication PMC8179567, “Target-templated de novo design of macrocyclic D-/L-peptides: discovery of drug-like inhibitors of PD-1” (Chemical Science, 2021)
Square brackets hold non-standard residues; d marks the D form. Peptide text beside a SMILES is read from it.

Experiments:
[1] = molecular target: T1, extracellular domain of human PD-1 (Homo sapiens, UniProt Q15116, C93S); experiment: Surface plasmon resonance (SPR), PD-1 immobilised on CM5 chip; type: binding; details: analytes injected at 10, 100 and 1000 µM in PBS, 25 °C, PBS-T pH 7.4, reference channel subtracted; KD not calculable (fast kinetics, no saturation)
T1 construct: ectodomain of human PD-1 (aa 33- 150) was cloned into pET-24d; made in house
T1 sequence (Q15116 33-150 C93S limits assumed): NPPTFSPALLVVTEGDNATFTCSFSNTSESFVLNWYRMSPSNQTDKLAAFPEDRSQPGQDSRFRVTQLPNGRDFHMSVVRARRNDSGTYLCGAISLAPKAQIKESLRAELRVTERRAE
From the text: Seven de novo designed cyclic peptides were in total selected for experimental characterization (PD-i1-7). To this end, peptide chains were elongated on a Wang-linker modified polystyrene resin (anchoring through the Asp side-chain carboxylic acid). This chemical strategy enabled the head-to-tail cyclisation to be readily performed on-resin, and a final deprotection/cleavage step yielded the already cyclized final peptide (Scheme S1 ^†). To test for their bioactivity, the extracellular domain of human PD-1 was recombinantly expressed in E. coli and refolded from inclusion bodies. The purified protein was then immobilized by free amine coupling on a CM5 sensor chip surface, and surface plasmon resonance (SPR) measurements were performed. […] In particular, we selected microscale thermophoresis (MST) as it has been validated with this system[30] and allows the quantification of interactions in solution, which mimics physiological conditions. To this end, PD-1 was first fluorescently labelled and then titrated with increasing amounts of PD-i3 and PD-i6. […] Mutation of L-Trp, which serves as PD-1 anchor for the in silico design process, largely abolished binding to the target (Fig. S9A ^†). […]

[2] = molecular target: T2, 15N-labelled PD-1 extracellular domain (Homo sapiens, UniProt Q15116, C93S); experiment: 1H,15N HSQC NMR mapping of interaction site; type: binding; details: 15N-PD-1 60 µM, peptide 1 mM, 25 °C, pH 6.4; I/Io > 20% considered significant; residues adjacent to the CC′ loop
T2 construct: ectodomain of human PD-1 (aa 33- 150) was cloned into pET-24d; made in house
T2 sequence (Q15116 33-150 C93S limits assumed): as above
Procedure: To further elucidate the interaction site of PD-i3 and PD-i6, we expressed the extracellular domain of PD-1 uniformly labelled in ^15N and performed high-resolution NMR spectroscopy assays.
Microscale thermophoresis (MST)
MST was used to calculate the binding affinities in solution of PD-i3 and PD-i 6 for the extracellular domain of human PD-1. To this end, PD-1 was fluorescently labelled by reaction of the Lys side chains with Alexa-647-NHS (6 eq) for 3 h at 4 °C. The labelled protein was purified by size-exclusion chromatography and was diluted in PBS-T buffer (0.05% Tween 20, pH 7.4) to a final concentration of 10 nM. […]
#BE0193) as positive controls (Figure S). […] A reproducible and negative thermophoresis response was observed, which was baseline-corrected and normalized (ΔFnorm [‰]).The curves were analyzed using a standard Langmuir binding model, from which dissociations constants (K D) were determined. […]
ITC experiments were performed at 25 °C using a low-volume nano ITC calorimeter (TA instruments). […] Binding isotherms were analysed using the software provided by TA instruments, assuming a single binding site for the independent domains. […]
1H,15N HSQC spectra were recorded at 25 °C on a Bruker 600 MHz spectrometer equipped with a cryoprobe. […]
To assess the solution structures of PD-i3 and PD-i6, NMR spectra were recorded at 5 °C on a Bruker B800 MHz spectrometer equipped with a cryoprobe. […]

CSCC[C@@H]1NC(=O)[C@H]([C@@H](C)O)NC(=O)[C@H](CC(=O)O)NC(=O)[C@H]2CCCN2C(=O)[C@H](Cc2ccc(O)cc2)NC(=O)[C@H](CCCNC(=N)N)NC(=O)[C@@H](CCCNC(=N)N)NC(=O)[C@@H](CCC(=O)O)NC(=O)[C@H](CC(C)C)NC(=O)[C@H](Cc2ccc(O)cc2)NC1=O [PD-i3] (cyclo(DTMYL[dE][dR]RY[dP])) was tested. Which “SPR response on PD-1-functionalised channel” value [1] did it give?
The value was “distinct concentration-dependent SPR responses”.

What about the “Changes in PD-1 HSQC signal intensity on peptide addition” value [2] of the same compound?
Its value is “significant changes in signal intensity”.

With CC(C)[C@@H]1NC(=O)[C@@H](Cc2c[nH]c3ccccc23)NC(=O)[C@H](Cc2c[nH]c3ccccc23)NC(=O)[C@H](CC(=O)O)NC(=O)[C@@H](CCCCN)NC(=O)[C@H](C)NC(=O)[C@H](CCC(=O)O)NC(=O)[C@H]2CCCN2C1=O [PD-i6] (cyclo(A[dK]DW[dW]V[dP]E)) as the compound, how does the “SPR response on PD-1-functionalised channel” value [1] read?
Its value is “distinct concentration-dependent SPR responses”.

What about the “Changes in PD-1 HSQC signal intensity on peptide addition” value [2] of the same compound?
Its value is “significant changes in signal intensity”.
